Measured values reported in US11773078B2, “Furin inhibitors” (Glaxosmithkline Intellectual Property Development Limited, priority 2018, dated 2023).

Columns and labels:
[1] = biological target: T1, Furin (108-574-Tev-Flag-His) enzyme (Homo sapiens, UniProt P09958); experiment: Furin enzyme assay; format: biochemical
T1 construct: Furin (108-574-Tev-Flag-His) enzyme was expressed and purified from CHO cells; TEV cleavage site (C); FLAG (C); His (C); made in house; host or cells: CHO cells
Method in brief: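 Compounds ran as 11-point threefold dilutions (0.00017–10 μM final) against 40 pM furin, purified from CHO cells, for 2 h at room temperature. Buffer: 100 mM HEPES pH7.5 with 1 mM CaCl2 and 0.005% Triton X-100. Envision readout. Four-parameter curve gives pXC50.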

[2] = biological target: T2, furin (endogenous protease) in U20S cells (Homo sapiens, UniProt P09958); experiment: Furin cell-based assay (image-based, Golgi-targeted GFP with BMP10 furin/PCSK cleavage site); settings: 24-hour incubation, read-out: furin golgi cell pXC50 (converted);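 note: Read-out is mean GFP fluorescence of Golgi puncta per cell by high-content imaging, retained when furin inhibited, over an eleven-point 0.00017–10 µM series, four-parameter fit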
T2 construct: the endogenous protease cleaves GFP; endogenous in cells; host or cells: U2OS cells transduced with a BacMam reporter
T2 sequence (P09958 108-794): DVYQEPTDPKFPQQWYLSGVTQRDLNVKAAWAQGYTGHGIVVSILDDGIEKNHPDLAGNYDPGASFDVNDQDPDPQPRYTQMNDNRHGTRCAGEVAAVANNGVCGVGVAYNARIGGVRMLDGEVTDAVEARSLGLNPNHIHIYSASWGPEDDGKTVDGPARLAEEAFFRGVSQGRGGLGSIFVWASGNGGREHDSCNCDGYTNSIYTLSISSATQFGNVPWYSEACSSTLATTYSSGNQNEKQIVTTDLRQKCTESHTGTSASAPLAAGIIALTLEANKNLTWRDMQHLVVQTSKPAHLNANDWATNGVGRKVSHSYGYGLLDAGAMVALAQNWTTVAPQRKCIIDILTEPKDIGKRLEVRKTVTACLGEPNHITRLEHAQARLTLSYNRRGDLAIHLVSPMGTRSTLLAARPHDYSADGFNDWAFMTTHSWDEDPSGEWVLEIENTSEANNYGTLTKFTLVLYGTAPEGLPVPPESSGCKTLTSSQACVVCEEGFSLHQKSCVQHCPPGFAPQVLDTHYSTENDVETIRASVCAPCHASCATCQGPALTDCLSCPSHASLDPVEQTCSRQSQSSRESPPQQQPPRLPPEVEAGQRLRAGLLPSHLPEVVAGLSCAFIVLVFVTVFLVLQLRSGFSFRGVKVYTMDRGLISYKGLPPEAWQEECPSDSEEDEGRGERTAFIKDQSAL

T1 sequence (P09958 108-574): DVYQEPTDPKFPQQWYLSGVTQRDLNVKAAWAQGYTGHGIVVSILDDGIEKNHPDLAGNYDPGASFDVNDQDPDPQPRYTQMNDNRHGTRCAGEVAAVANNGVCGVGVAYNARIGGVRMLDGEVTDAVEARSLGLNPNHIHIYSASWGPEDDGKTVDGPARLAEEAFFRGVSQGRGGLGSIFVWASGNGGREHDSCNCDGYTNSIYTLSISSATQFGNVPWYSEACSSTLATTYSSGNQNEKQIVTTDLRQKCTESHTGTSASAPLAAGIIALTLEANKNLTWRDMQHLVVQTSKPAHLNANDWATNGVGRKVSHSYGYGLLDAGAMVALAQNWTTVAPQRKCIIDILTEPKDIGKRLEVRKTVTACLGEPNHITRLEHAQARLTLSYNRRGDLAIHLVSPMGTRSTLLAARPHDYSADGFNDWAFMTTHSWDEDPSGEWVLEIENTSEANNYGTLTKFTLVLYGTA

| SMILES | furin enzyme pIC50 [1] | EC50 [2] [nM] | IC50 ([1]; read-out: furin enzyme pIC50 (converted)) [nM] |
| --- | --- | --- | --- |
| CN1CCN(c2ncc(Oc3cc(CN4CCC(CC(=O)O)CC4)cc(-c4cc(Cl)cc(Cl)c4)n3)cc2F)CC1 [Example 151, 2-(1-((2-(3,5-dichlorophenyl)-6-((5-fluoro-6-(4-methylpiperazin-1-yl)pyridin-3-yl)oxy)pyridin-4-yl)methyl)piperidin-4-yl)acetic acid] | 8.2 | 100 | – |
| O=C(O)CC1CCN(Cc2cc(Oc3cnc(N4CCN(C5CC(O)C5)CC4)nc3)nc(-c3cc(Cl)cc(Cl)c3)c2)CC1 (centres unmarked) [Example 22, 2-(1-((2-(3,5-dichlorophenyl)-6-((2-(4-(3-hydroxycyclobutyl)piperazin-1-yl)pyrimidin-5-yl)oxy)pyridin-4-yl)methyl)piperidin-4-yl)acetic acid] | 9.5 | 10 | – |
| CNC(=O)NCC1CCN(Cc2cc(Oc3cnc(N4CCN(C(C)CCS(C)(=O)=O)CC4)nc3)nc(-c3cc(Cl)cc(Cl)c3)c2)CC1 (centres unmarked) [Example 18, 1-((1-((2-(3,5-dichlorophenyl)-6-((2-(4-(4-(methylsulfonyl)butan-2-yl)piperazin-1-yl)pyrimidin-5-yl)oxy)pyridin-4-yl)methyl)piperidin-4-yl)methyl)-3-methylurea] | 10.7 | 0.501 | – |
| C[C@]1(O)C[C@H](N2CCN(c3ncc(Oc4cc(CN5CCC(CC(=O)O)CC5)cc(-c5cc(Cl)cc(Cl)c5)n4)cn3)CC2)C1 [Example 25, 2-(1-((2-(3,5-dichlorophenyl)-6-((2-(4-((1r,3r)-3-hydroxy-3-methylcyclobutyl)piperazin-1-yl)pyrimidin-5-yl)oxy)pyridin-4-yl)methyl)piperidin-4-yl)acetic acid] | 8.2 | 12.6 | – |

Results, then the compound that gave them:

| furin enzyme pIC50 [1] | EC50 [2] [nM] | IC50 ([1]; read-out: furin enzyme pIC50 (converted)) [nM] | SMILES |
| --- | --- | --- | --- |
| 8.8 | 501 | – | CC(CC(=O)O)C1CN(Cc2cc(Oc3cnc(N4CCN(C)CC4)nc3)nc(-c3cc(Cl)cc(Cl)c3)c2)C1 (centres unmarked) [Example 127, 3-(1-((2-(3,5-dichlorophenyl)-6-((2-(4-methylpiperazin-1-yl)pyrimidin-5-yl)oxy)pyridin-4-yl)methyl)azetidin-3-yl)butanoic acid] |
| – | 15.8 | 2.51 | CN1CCN(c2ncc(Oc3cc(CN4CCC(CC(=O)O)CC4)cc(-c4cc(Cl)cc(Cl)c4)n3)cn2)CC(O)C1 (centres unmarked) [Example 226, 2-(1-((2-(3,5-dichlorophenyl)-6-((2-(6-hydroxy-4-methyl-1,4-diazepan-1-yl)pyrimidin-5-yl)oxy)pyridin-4-yl)methyl)piperidin-4-yl)acetic acid] |
| 8.3 | 15.8 | – | CC(=O)NC(=O)OCC1CCN(Cc2cc(Oc3cnc(N4CCN(C)CC4)nc3)nc(-c3cc(Cl)cc(Cl)c3)c2)CC1 [Example 324] |
| 9.1 | 10 | – | CC(=O)NCC1CCN(Cc2cc(Oc3cnc(N4CCN(C)CC4)nc3)nc(-c3cc(Cl)cc(Cl)c3)c2)CC1 [Example 64, N-((1-((2-(3,5-dichlorophenyl)-6-((2-(4-methylpiperazin-1-yl)pyrimidin-5-yl)oxy)pyridin-4-yl)methyl)piperidin-4-yl)methyl)acetamide] |
| 10.4 | 12.6 | – | CNC(=O)OCC1CCN(Cc2cc(Oc3ccc(N4CCN(C)CC4)nc3)nc(-c3cc(Cl)cc(Cl)c3)c2)CC1 [Example 67, (1-((2-(3,5-dichlorophenyl)-6-((6-(4-methylpiperazin-1-yl)pyridin-3-yl)oxy)pyridin-4-yl)methyl)piperidin-4-yl)methyl methylcarbamate] |
| 9.2 | 15.8 | – | CC(=O)NCC1CCN(Cc2cc(Oc3cnc(N4CCN(CCO)CC4)nc3)nc(-c3cc(F)cc(Cl)c3)c2)CC1 [Example 315, N-((1-((2-(3-chloro-5-fluorophenyl)-6-((2-(4-(2-hydroxyethyl)piperazin-1-yl)pyrimidin-5-yl)oxy)pyridin-4-yl)methyl)piperidin-4-yl)methyl)acetamide] |
